This note sets out measurements from ChEMBL document CHEMBL1133919, “Identification of selective inhibitors of cyclin dependent kinase 4” (Bioorg Med Chem Lett, 2001).

Assay [1] concerns the target T1, Cyclin-dependent kinase 4/cyclin D1 (Homo sapiens, UniProt P11802). Nature of the assay: Inhibitory activity against Cyclin dependent kinase CDK4/D1. The format is protein-complex assay.
Assay [2] relates to SKUT-1A. Nature of the assay: Inhibition of Rb negative Skut 1A cell proliferation. It counts as functional, cell-based. Particulars: Homo sapiens.
For assay [3], the target named is Cyclin-dependent kinase 1 (Homo sapiens) (UniProt P06493). The assay can be described thus: Inhibition of Cyclin dependent kinase CDK1/B.
Cyclin-dependent kinase 1 (Homo sapiens), sequence (P06493 whole entry, looked up): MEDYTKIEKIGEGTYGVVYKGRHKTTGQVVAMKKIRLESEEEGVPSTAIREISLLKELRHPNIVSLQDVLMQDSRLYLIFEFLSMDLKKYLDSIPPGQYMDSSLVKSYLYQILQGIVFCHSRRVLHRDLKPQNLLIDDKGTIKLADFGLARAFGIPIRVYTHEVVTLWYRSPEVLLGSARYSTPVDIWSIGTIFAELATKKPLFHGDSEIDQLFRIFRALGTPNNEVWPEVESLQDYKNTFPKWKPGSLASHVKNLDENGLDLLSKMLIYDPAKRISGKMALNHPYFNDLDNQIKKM
The subject of assay [4] is Skut1B. Nature of the assay: Inhibition of Rb positive Skut 1B cell proliferation. It counts as functional, cell-based. Particulars: Homo sapiens.
The subject of assay [5] is HCT-116. Nature of the assay: Inhibition of colon carcinoma cell line HCT116 proliferation. It counts as functional, cell-based. Conditions: Homo sapiens.
Assay [6] concerns the target Cyclin-dependent kinase 1/cyclin B (Homo sapiens, UniProt P06493). Nature of the assay: Inhibition of CDK1/cyclin B. The format is protein-complex assay.
Assay [7] has as its target T1, Cyclin-dependent kinase 4/cyclin D1. The assay can be described thus: Inhibition of Cyclin dependent kinase CDK4/cyclin D1. The format is protein-complex assay.
The target of assay [8] is Cyclin-dependent kinase 2/cyclin E (Homo sapiens, UniProt P24941). The assay can be described thus: Inhibition of CDK2/cyclin E. It counts as protein-complex assay.

In general, IC50 refers to the concentration that gives 50% inhibition. A lower IC50 goes with greater potency in that assay.

T1 sequence (P11802 whole entry): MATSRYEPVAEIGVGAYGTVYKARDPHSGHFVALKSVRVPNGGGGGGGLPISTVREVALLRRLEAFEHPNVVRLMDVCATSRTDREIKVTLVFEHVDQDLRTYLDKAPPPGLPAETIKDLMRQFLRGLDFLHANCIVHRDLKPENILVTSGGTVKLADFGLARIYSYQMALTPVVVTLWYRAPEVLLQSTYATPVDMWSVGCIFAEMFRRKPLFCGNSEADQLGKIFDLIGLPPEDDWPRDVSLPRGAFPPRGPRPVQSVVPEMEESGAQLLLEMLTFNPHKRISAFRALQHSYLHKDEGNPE
T1 sequence (P24385 whole entry, further chain): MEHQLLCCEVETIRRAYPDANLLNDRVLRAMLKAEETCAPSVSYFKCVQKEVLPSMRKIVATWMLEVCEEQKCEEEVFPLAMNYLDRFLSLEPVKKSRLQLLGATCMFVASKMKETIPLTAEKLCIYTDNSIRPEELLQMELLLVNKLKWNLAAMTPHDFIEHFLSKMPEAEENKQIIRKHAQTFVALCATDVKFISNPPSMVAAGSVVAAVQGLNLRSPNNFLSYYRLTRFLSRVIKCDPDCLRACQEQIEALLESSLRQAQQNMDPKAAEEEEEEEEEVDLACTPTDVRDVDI

In assay [1], `Oc1ccc2c(ccc3[nH]c4c(-c5ccccc5)cccc4c32)c1` registered an IC50 of 29 µM.

In assay [1], `c1ccc2c(c1)[nH]c1ccc3cnccc3c12` registered an IC50 of 30 µM.

On to `c1ccc(-c2cccc3c2[nH]c2ccc4ccccc4c23)cc1`, for which the concentration for half-maximal inhibition (IC50) in assay [1] is above 341 µM.

In the case of `COc1ccc2ccc3[nH]c4c(-c5ccccc5)cccc4c3c2c1`, the IC50 in assay [1] is above 309 µM.

For `Oc1ccc2ccc3[nH]c4ccc(-c5ccccc5)cc4c3c2c1`, the IC50 in assay [1] amounted to 37.5 µM.

`Oc1ccc2ccc3[nH]c4cccc(-c5ccccc5)c4c3c2c1` had an IC50 in assay [1] of 83 µM.

`Nc1cccc(-c2cccc3c2[nH]c2ccc4ccc(O)cc4c23)c1`: the IC50 turned out to be 11.6 µM in assay [2]; 2.3 µM in assay [1]; 74.5 µM in assay [3]; 4.1 µM in assay [4]; 9.6 µM in assay [5].

On to `c1ccc2c(c1)[nH]c1ccc3ncccc3c12`, for which it took 197 µM to reach half-maximal inhibition in assay [1] (IC50).

Take `Oc1cccc2c1ccc1[nH]c3c(-c4ccccc4)cccc3c12`: the half-inhibitory concentration (IC50) in assay [1] was determined as 5.8 µM.

Consider `Oc1cccc2ccc3[nH]c4c(-c5ccccc5)cccc4c3c12`, for which the midpoint of inhibition in assay [1], the IC50, lay at 19.5 µM.

As to `Oc1ccc(-c2cccc3c2[nH]c2ccc4ccc(O)cc4c23)cc1`, the IC50 in assay [2] came to 5.6 µM; in assay [1], 1.9 µM; in assay [4], 2.3 µM; in assay [5] it was 2.2 µM.

Regarding `Oc1ccc2ccc3[nH]c4cc(-c5ccccc5)ccc4c3c2c1`, the 50% inhibitory concentration (IC50) in assay [1] was found to be 22 µM.

As to `Nc1ccc2ccc3[nH]c4c(-c5ccccc5)cccc4c3c2c1`, in assay [1], half-maximal inhibition (IC50) required 27.3 µM.

`c1cnc2c(c1)ccc1[nH]c3ccccc3c12` gave an IC50 in assay [1] of 442 µM.

As to `Oc1ccc2ccc3[nH]c4c(-c5ccc(Cl)cc5)cccc4c3c2c1`, the half-inhibitory concentration (IC50) in assay [2] worked out at 36 µM; in assay [1], 9.9 µM; in assay [4], 10.2 µM; in assay [5], 51 µM.

On to `Oc1ccc2ccc3[nH]c4c(-c5ccccc5)cccc4c3c2c1`, for which the concentration for half-maximal inhibition (IC50) in assay [2] was 10.7 µM; in assay [6] it was 95 µM; in assay [4] it was 2.8 µM; in assay [7], 3.6 µM; in assay [5], 10.2 µM; in assay [8] it was 97 µM.

`Oc1ccc2ccc3[nH]c4ccccc4c3c2c1` gave a 50% inhibitory concentration (IC50) in assay [1] of 17.4 µM.

Compound `c1ccc2c(c1)[nH]c1ccc3ccncc3c12` had an IC50 in assay [1] of 159 µM.

In turn, `[O-][n+]1ccc2ccc3[nH]c4ccccc4c3c2c1` had an IC50 in assay [1] of 605 µM.

In turn, `[O-][n+]1ccc2c(ccc3[nH]c4ccccc4c32)c1` had a 50% inhibitory concentration (IC50) in assay [1] of 59 µM.
